In US9714244B2, “Substituted pyrido[4,3-d]pyrimidines as Wee-1 inhibitors” (ALMAC DISCOVERY LIMITED, priority 2013, dated 2017):
Structures can show the parent of a compound that is named as a salt. Where two headings read alike, the source gives them in different places.

Columns and labels:
[1] = CLint estimates using human liver microsomes; assay type: in vitro ADME; details: pH 7.4, read-out: HLM activity (HLM CLint)
Experimental: Method for the Determination of CLint Estimates Using Human Liver Microsomes
Test compounds (final concentration=1 μM; final DMSO concentration=0.1%) were incubated in 0.1M phosphate buffer pH 7.4 with human liver microsomes (0.5 mg of protein/mL) at 37° C. Reactions were started by addition of NADPH in 0.1M phosphate buffer pH 7.4 (final concentration 1 mM). 40 μL aliquots were removed at 2, 5, 10, 15, 20, 30, 40 and 50 min. Reactions were quenched in 80 μL of ice-cold methanol. Samples were subsequently frozen overnight then centrifuged at 3500 rpm for 20 min at 4° C. The supernatants were removed and transferred into analytical plates and analysed by LC/MS/MS.
All samples were analysed on a Waters Acquity I-Class coupled to a Waters Xevo TQD mass spectrometer. A Waters BEH C18 2.1×50 mm 1.7 μm column was used and mobile phases were water and methanol containing 0.1% formic acid as modifier. Analysis was by multiple reaction monitoring and conditions were optimised for each test compound.
From a plot of ln peak area against time, the gradient of the line is determined. Subsequently, half-life and intrinsic clearance are calculated using the following equations.

[2] = biological target: human ether a go-go related gene (hERG) K+ channel (Homo sapiens (Human), UniProt Q12809); assay: hERG inhibition, IonWorks patch clamp electrophysiology; assay type: cell-based; details: 8-point curve from 11 μM
Experimental: Compounds were tested for inhibition of the human ether a go-go related gene (hERG) K^+ channel using IonWorks patch clamp electrophysiology at Essen BioScience.

[3] = system: phospho-cdc2 (Tyr15) in HT-29 cells; assay: Effect on phosphorylation of cdc2 at Tyr15 in HT-29 cells (PathScan ELISA); assay type: cell-based; details: Homo sapiens, HT-29, 8 h; HT29 cells, eight hours incubation; read-out: HT29 pCDC2 activity
Experimental: Method 2: Determining the effect of compounds on the phosphorylation of cdc2 at Tyr15
The colorectal cancer cell lines HT-29 and HCT-116 were purchased from the ATCC and routinely maintained in McCoy's Medium (Invitrogen) supplemented with 10% Foetal Calf Serum.
The cells were trypsinised from their growing vessel and counted, 100 μL of cell suspension containing 6000 cells was pipetted into black 96 well Co-star plates and incubated overnight to allow adherence to the surface at a temperature of 37° C. and an atmosphere of 5% CO2. Test compounds were formulated in DMSO and diluted in foetal calf serum supplemented medium. Incubating medium was removed by aspiration and diluted drug supplemented medium added to each well.
The plate was returned to the incubator for an additional eight hours at 37° C. and an atmosphere of 5% CO2. Post incubation, the drug supplemented medium was aspirated from each well and the cells were washed once in ice-cold phosphate buffered saline (PBS). 100 μL of cell lysis buffer (Cell Signalling Technologies #9803) containing 20 mM Tris, 150 mM NaCl, 1 mM EDTA, 1 mM EGTA, 1% Triton-X100, 2.5 mM sodium pyrophosphate, 1 mM glycerophosphate, 1 mM Na3VO4 and 1 μg/mL leupeptin was added to each well of the 96 well plate and incubated at 4° C. for 30 min. The samples on the plate were snap frozen at −80° C. until required.
Immediately before the continuation of the assay, the sample plate was thawed and centrifuged at 4° C. for 10 min and the supernatant transferred to secondary tubes or 96 well plate.
Cell supernatant was mixed in a ratio of 1:1 with sample dilutent buffer and vortexed for one minute. 100 μL of diluted sample was pipetted into pre-coated plates containing a rabbit polyclonal antibody for phospho-cdc2 (Tyr15) (Cell Signalling Technologies PathScan kit #7176). The plate was sealed and incubated overnight at 4° C.
The plate seal was removed and the well contents aspirated, followed by 3×5 min washes with 200 μL of diluted wash buffer. Between each wash the plate was tapped firmly onto blotting paper to ensure the removal of all kit solution. 100 μL of kit detection antibody was added to each well and the plate re-sealed and incubated at 37° C. for 1 h. Post incubation the plate was washed and processed in a similar manner to that previously described.
100 μL of horseradish peroxidise-linked secondary antibody was added to each test well, the plate sealed and incubated for thirty minutes at 37° C. Post incubation, the plate was washed as previously stated, followed by the addition of 100 μL of 3,3′,5,5′ tetramethylbenzidine (TMB reagent). The plate was sealed and incubated at RT for 30 min.
100 μL of stop solution was added to each well and the underside of the plate wiped with a lint-free tissue, prior to spectrophotometric determination. Absorbance from each well was read at 450 nm within 30 min of the addition of the stop solution.
The percentage of phospho-cdc2 was calculated compared to DMSO control and plotted versus the concentration of inhibitor using GraphPad Prism. Data was fitted using non-linear regression analysis and IC50 values generated.

Wee-1 kinase = Wee-1 kinase (Homo sapiens (Human), UniProt P30291); assay: Measurement of Wee-1 kinase activity (ADP-Glo); assay type: biochemical
Experimental: Method 1: Measurement of Wee-1 kinase activity
In the measurement of Wee-1 activity, a commercial peptide Poly(Lys Tyr(4:1)) hydrobromide was purchased from Sigma Aldrich and used as the substrate. Activated Wee-1 kinase was purchased from Invitrogen (PV3817) and an ADP-Glo luminescent kit was purchased from Promega.
All reactions took place in […] volumes in reaction buffer containing 40 mM Tris-HCl and 20 mM magnesium chloride, supplemented with 0.1 mg/mL bovine serum albumin and 2 mM DTT. Compounds were serially diluted in buffer and 5 μL of each concentration pipetted into a white 384 well plate (Sigma Aldrich M6186). A 5 μL aliquot of the Wee-1 enzyme was added to each well and the plate centrifuged for 1 min to ensure mixing of the enzyme and inhibitor.
The plate was incubated at room temperature for 30 minutes before the addition of 2.0 μg/mL of substrate and 30 μM ATP in a 5 μL aliquot. The plate was centrifuged for one minute and incubated for 1 h at RT.
15 μL of ADP-Glo stop reagent was added to each well to quench the reaction and deplete unconverted ATP. The plate was incubated for a further 40 min in the dark at RT.
30 μL of ADP-Glo kinase detection reagent was added to each well, converting ADP to ATP, catalysing the generation of luciferin by luciferase. The plate was shaken for 1 min, and incubated in the dark for an additional hour.
Luminescence from each well was detected using the Biotek Synergy4 HD plate reader and the percentage inhibition of kinase activity calculated for each inhibitor tested. Positive (kinase only) and negative (no kinase) controls were added to each plate to ensure specific interaction of kinase and inhibitor. The IC50 concentration for each inhibitor was calculated by plotting the percentage kinase inhibition against concentration of inhibitor and the curve generated by non-linear regression fitting.

[4] = Human hepatocyte assay CLint; assay type: in vitro ADME; details: hepatocytes
Experimental: (§1) Compounds of the present invention have good stability in human and/or rat hepatocyte incubations. In particular, representative examples 7, 8, 13, 18, 20 have CLint of <20 μL/min/10^6 cells in a human hepatocyte assay and/or <40 μL/min/10^6 cells in a rat hepatocyte assay.

[5] = Rat hepatocyte assay CLint; assay type: in vitro ADME; details: hepatocytes
Experimental: as §1

Chain of human ether a go-go related gene (hERG) K+ channel (Q12809 whole entry): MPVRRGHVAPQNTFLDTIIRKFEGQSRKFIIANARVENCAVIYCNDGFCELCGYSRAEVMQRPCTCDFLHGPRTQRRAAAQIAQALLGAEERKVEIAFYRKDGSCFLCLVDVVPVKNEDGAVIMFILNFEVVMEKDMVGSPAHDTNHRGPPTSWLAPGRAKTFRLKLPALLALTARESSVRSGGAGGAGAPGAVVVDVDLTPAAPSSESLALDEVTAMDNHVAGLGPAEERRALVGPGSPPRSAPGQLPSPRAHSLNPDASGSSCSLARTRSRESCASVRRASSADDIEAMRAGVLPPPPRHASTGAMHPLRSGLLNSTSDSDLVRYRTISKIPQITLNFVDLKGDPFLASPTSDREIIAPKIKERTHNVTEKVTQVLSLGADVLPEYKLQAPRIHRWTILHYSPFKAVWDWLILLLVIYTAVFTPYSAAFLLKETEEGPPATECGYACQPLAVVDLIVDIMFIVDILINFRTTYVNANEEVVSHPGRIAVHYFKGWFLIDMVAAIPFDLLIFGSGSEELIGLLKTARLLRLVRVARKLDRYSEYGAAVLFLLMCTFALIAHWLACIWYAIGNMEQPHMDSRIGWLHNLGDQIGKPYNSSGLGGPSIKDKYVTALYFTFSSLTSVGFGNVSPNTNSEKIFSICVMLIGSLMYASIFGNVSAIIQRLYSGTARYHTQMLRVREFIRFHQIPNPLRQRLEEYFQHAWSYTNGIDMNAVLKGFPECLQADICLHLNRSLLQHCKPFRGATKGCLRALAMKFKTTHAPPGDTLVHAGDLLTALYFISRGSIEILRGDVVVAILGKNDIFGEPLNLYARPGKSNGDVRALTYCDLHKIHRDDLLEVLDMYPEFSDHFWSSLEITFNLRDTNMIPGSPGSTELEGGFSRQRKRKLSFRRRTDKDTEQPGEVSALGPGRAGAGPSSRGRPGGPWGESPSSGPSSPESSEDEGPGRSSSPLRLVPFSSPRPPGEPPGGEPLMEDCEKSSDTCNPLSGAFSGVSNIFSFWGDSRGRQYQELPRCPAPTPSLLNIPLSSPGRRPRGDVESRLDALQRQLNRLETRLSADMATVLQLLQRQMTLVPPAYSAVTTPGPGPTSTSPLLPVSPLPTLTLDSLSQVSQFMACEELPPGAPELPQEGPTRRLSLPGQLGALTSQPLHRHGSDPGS
Chain of Wee-1 kinase (P30291 whole entry): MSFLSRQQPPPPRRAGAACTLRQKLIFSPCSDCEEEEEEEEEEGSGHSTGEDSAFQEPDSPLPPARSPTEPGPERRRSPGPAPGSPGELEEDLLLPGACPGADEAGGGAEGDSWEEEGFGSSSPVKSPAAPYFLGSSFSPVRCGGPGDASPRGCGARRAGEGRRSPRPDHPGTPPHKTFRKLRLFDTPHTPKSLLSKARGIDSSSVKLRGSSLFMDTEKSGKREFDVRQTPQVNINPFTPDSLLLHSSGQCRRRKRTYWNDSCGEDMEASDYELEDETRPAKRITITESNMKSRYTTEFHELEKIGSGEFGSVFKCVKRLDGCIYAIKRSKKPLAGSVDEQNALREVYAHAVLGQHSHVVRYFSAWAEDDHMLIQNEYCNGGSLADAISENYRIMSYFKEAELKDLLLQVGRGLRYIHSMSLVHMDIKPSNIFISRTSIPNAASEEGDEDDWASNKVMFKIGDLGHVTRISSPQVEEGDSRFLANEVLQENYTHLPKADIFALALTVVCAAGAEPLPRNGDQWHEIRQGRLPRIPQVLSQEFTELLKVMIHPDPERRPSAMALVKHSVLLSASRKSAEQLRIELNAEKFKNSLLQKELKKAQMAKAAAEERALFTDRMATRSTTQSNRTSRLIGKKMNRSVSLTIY

| SMILES | microsomal CLint at 1 μM [1] | IC50 [2] | IC50 [3] | IC50 (Wee-1 kinase; read-out: Wee-1 IC50 activity) | hepatocyte CLint [4] | hepatocyte CLint [5] | IC50 (Wee-1 kinase) |
| --- | --- | --- | --- | --- | --- | --- | --- |
| Cc1cn(-c2c(Cl)cccc2Cl)c(=O)c2cnc(Nc3ccc(N4CCNCC4)cc3)nc12 [Example 2, 6-(2,6-Dichlorophenyl)-8-methyl-2-((4-(piperazin-1-yl)phenyl)amino)pyrido[4,3-d]pyrimidin-5(6H)-one] | ≤ 20 µL/min/mg | ≥ 10 µM | 0.1 to 1 µM | < 0.01 µM | – | – | – |
| CN1CCN(c2ccc(Nc3ncc4c(=O)n(-c5c(Cl)cccc5Cl)ccc4n3)cc2CO)CC1 [Example 8, 6-(2,6-Dichlorophenyl)-2-((3-(hydroxymethyl)-4-(4-methylpiperazin-1-yl)phenyl)amino)pyrido[4,3-d]pyrimidin-5(6H)-one] | ≤ 20 µL/min/mg | – | 0.1 to 1 µM | < 0.01 µM | < 20 µL/min/1e6 cells | < 40 µL/min/1e6 cells | – |
| CN1CCC(c2ccc(Nc3ncc4c(=O)n(-c5c(Cl)cccc5Cl)ccc4n3)cc2)CC1 [Example 10, 6-(2,6-Dichlorophenyl)-2-((4-(1-methylpiperidin-4-yl)phenyl)amino)pyrido[4,3-d]pyrimidin-5(6H)-one, HCl] | ≤ 20 µL/min/mg | 1 to 10 µM | 0.1 to 1 µM | < 0.01 µM | – | – | – |
| CN(C)CCc1ccc(Nc2ncc3c(=O)n(-c4c(Cl)cccc4Cl)ccc3n2)cc1 [Example 11, 6-(2,6-Dichlorophenyl)-2-((4-(2-(dimethylamino)ethyl)phenyl)amino)pyrido[4,3-d]pyrimidin-5(6H)-one, HCl] | > 20 µL/min/mg | 1 to 10 µM | 0.1 to 1 µM | 0.01 to 0.2 µM | – | – | – |
| COc1cc(Nc2ncc3c(=O)n(-c4c(Cl)cccc4Cl)ccc3n2)ccc1N1CCN(C)CC1 [Example 12, 6-(2,6-Dichlorophenyl)-2-((3-methoxy-4-(4-methylpiperazin-1-yl)phenyl)amino)pyrido[4,3-d]pyrimidin-5(6H)-one, HCl] | > 20 µL/min/mg | 1 to 10 µM | ≤ 0.1 µM | – | – | – | 0.01 to 0.2 µM |
| CNCCOc1ccc(Nc2ncc3c(=O)n(-c4c(Cl)cccc4Cl)ccc3n2)cc1 [Example 16, 6-(2,6-Dichlorophenyl)-2-((4-(2-(methylamino)ethoxy)phenyl)amino)pyrido[4,3-d]pyrimidin-5(6H)-one, HCl] | ≤ 20 µL/min/mg | ≥ 10 µM | 0.1 to 1 µM | – | – | – | 0.01 to 0.2 µM |
| CC(C)N1CCN(c2ccc(Nc3ncc4c(=O)n(-c5c(Cl)cccc5Cl)ccc4n3)cc2)CC1 [Example 17, 6-(2,6-Dichlorophenyl)-2-((4-(4-isopropylpiperazin-1-yl)phenyl)amino)pyrido[4,3-d]pyrimidin-5(6H)-one] | > 20 µL/min/mg | 1 to 10 µM | 0.1 to 1 µM | 0.01 to 0.2 µM | – | – | – |
| O=c1c2cnc(Nc3ccc(N4CCNCC4)c(CO)c3)nc2ccn1-c1c(Cl)cccc1Cl [Example 18, 6-(2,6-Dichlorophenyl)-2-((3-(hydroxymethyl)-4-(piperazin-1-yl)phenyl)amino)pyrido[4,3-d]pyrimidin-5(6H)-one] | ≤ 20 µL/min/mg | ≥ 10 µM | ≤ 0.1 µM | < 0.01 µM | < 20 µL/min/1e6 cells | < 40 µL/min/1e6 cells | – |
| O=c1c2cnc(Nc3ccc(N4CCOCC4)cc3)nc2ccn1-c1c(Cl)cccc1Cl [Example 19, 6-(2,6-Dichlorophenyl)-2-((4-morpholinophenyl)amino)pyrido[4,3-d]pyrimidin-5(6H)-one] | > 20 µL/min/mg | ≥ 10 µM | ≥ 1 µM | – | – | – | 0.01 to 0.2 µM |
| O=c1c2cnc(Nc3cc(F)c(N4CCNCC4)c(F)c3)nc2ccn1-c1c(Cl)cccc1Cl [Example 30, 6-(2,6-Dichlorophenyl)-2-((3,5-difluoro-4-(piperazin-1-yl)phenyl)amino)pyrido[4,3-d]pyrimidin-5(6H)-one] | ≤ 20 µL/min/mg | – | ≥ 1 µM | 0.01 to 0.2 µM | – | – | – |
